{"source": "patent US8541460B2", "about": "“PDK-1/Akt signaling inhibitors” (The Ohio State University, priority 2003, dated 2013)", "assay_type_in_all_cases": "cell-based", "key": {"HOP-92": {"tested_on": "HOP-92", "assay": "NCI DTP cell line screen (SRB), Non-Small Cell Lung Cancer"}, "SW-620": {"tested_on": "SW-620", "assay": "NCI DTP cell line screen (SRB), Colon Cancer", "experimental": "(§1) Screening of compounds 70 and 71 against several cancer cell lines The human tumor cell lines of the cancer screening panel are grown in RPMI 1640 medium containing 5% fetal bovine serum and 2 mM L-glutamine. For a typical screening experiment, cells are inoculated into 96 well microtiter plates in 100 μL at plating densities ranging from 5,000 to 40,000 cells/well depending on the doubling time of individual cell lines. After cell inoculation, the microtiter plates are incubated at 37° C., 5% CO2, 95% air and 100% relative humidity for 24 h prior to addition of experimental drugs.\n(§2) After 24 h, two plates of each cell line are fixed in situ with TCA, to represent a measurement of the cell population for each cell line at the time of drug addition (Tz). Experimental drugs are solubilized in dimethyl sulfoxide at 400-fold the desired final maximum test concentration and stored frozen prior to use. At the time of drug addition, an aliquot of frozen concentrate is thawed and diluted to twice the desired final maximum test concentration with complete medium containing 50 μg/ml gentamicin. Additional four, 10-fold or ½ log serial dilutions are made to provide a total of five drug concentrations plus control. Aliquots of 100 μl of these different drug dilutions are added to the appropriate microtiter wells already containing 100 μl of medium, resulting in the required final drug concentrations.\n(§3) Following drug addition, the plates are incubated for an additional 48 h at 37° C., 5% CO2, 95% air, and 100% relative humidity. For adherent cells, the assay is terminated by the addition of cold TCA. Cells are fixed in situ by the gentle addition of 50 μl of cold 50% (w/v) TCA (final concentration, 10% TCA) and incubated for 60 minutes at 4° C. The supernatant is discarded, and the plates are washed five times with tap water and air dried. Sulforhodamine B (SRB) solution (100 μl) at 0.4% (w/v) in 1% acetic acid is added to each well, and plates are incubated for 10 minutes at room temperature. After staining, unbound dye is removed by washing five times with 1% acetic acid and the plates are air dried. Bound stain is subsequently solubilized with 10 mM trizma base, and the absorbance is read on an automated plate reader at a wavelength of 515 nm. For suspension cells, the methodology is the same except that the assay is terminated by fixing settled cells at the bottom of the wells by gently adding 50 μl of 80% TCA (final concentration, 16% TCA). Using the seven absorbance measurements [time zero, (Tz), control growth, (C), and test growth in the presence of drug at the five concentration levels (Ti)], the percentage growth is calculated at each of the drug concentrations levels. Percentage growth inhibition is calculated as: [(Ti−Tz)/(C−Tz)]×100 for concentrations for which Ti>/=Tz [(Ti−Tz)/Tz]×100 for concentrations for which Ti<Tz\n(§4) Three dose response parameters are calculated for each experimental agent. […] The drug concentration resulting in total growth inhibition (TGI) is calculated from Ti=Tz. […] Values are calculated for each of these three parameters if the level of activity is reached; however, if the effect is not reached or is exceeded, the value for that parameter is expressed as greater or less than the maximum or minimum concentration tested.\n(§5) The methods described were used to test compounds 70 and 71 on a panel of sixty cell lines under a screening service provided by the Developmental Therapeutics Program at the National Institutes of Health. Shown in FIG. 1C are 1, RPMI-8226 leukemia cells; 2; NCI-H322M non-small cell lung cancer cells; 3, HT29 colon cancer cells; 4, U251 CNS cancer cells; 5, SK-MEL-28 melanoma cancer cells; 6, SK-OV-3 ovarian cancer cells; 7, RXF 393 renal cancer cells; 8, PC-3 prostate cancer cells; 9, MDA-MB-231 breast cancer cells."}, "KM12": {"tested_on": "KM12", "assay": "NCI DTP cell line screen (SRB), Colon Cancer", "experimental": "as §1, §2, §3, §4, §5"}, "HCT-116": {"tested_on": "HCT-116", "assay": "NCI DTP cell line screen (SRB), Colon Cancer", "experimental": "as §1, §2, §3, §4, §5"}, "HS 578T": {"tested_on": "HS 578T", "assay": "NCI DTP cell line screen (SRB), Breast Cancer", "experimental": "as §1, §2, §3, §4, §5"}, "NCI/ADR-RES": {"tested_on": "NCI/ADR-RES", "assay": "NCI DTP cell line screen (SRB), Breast Cancer", "experimental": "as §1, §2, §3, §4, §5"}, "T-47D": {"tested_on": "T-47D", "assay": "NCI DTP cell line screen (SRB), Breast Cancer", "experimental": "as §1, §2, §3, §4, §5"}, "MDA-MB-231/ATCC": {"tested_on": "MDA-MB-231/ATCC", "assay": "NCI DTP cell line screen (SRB), Breast Cancer", "experimental": "as §1, §2, §3, §4, §5"}, "[1]": {"tested_on": "sixty human tumor cell lines", "assay": "NCI DTP screen, means over sixty human tumor cell lines", "settings": "two-day treatment", "experimental": "as §1, §2\nFollowing drug addition, the plates are incubated for an additional 48 h at 37° C., 5% CO2, 95% air, and 100% relative humidity. For adherent cells, the assay is terminated by the addition of cold TCA. Cells are fixed in situ by the gentle addition of 50 μl of cold 50% (w/v) TCA (final concentration, 10% TCA) and incubated for 60 minutes at 4° C. […] Bound stain is subsequently solubilized with 10 mM trizma base, and the absorbance is read on an automated plate reader at a wavelength of 515 nm. […] Using the seven absorbance measurements [time zero, (Tz), control growth, (C), and test growth in the presence of drug at the five concentration levels (Ti)], the percentage growth is calculated at each of the drug concentrations levels. Percentage growth inhibition is calculated as: [(Ti−Tz)/(C−Tz)]×100 for concentrations for which Ti>/=Tz [(Ti−Tz)/Tz]×100 for concentrations for which Ti<Tz\nas §4, with “tested. […]” for “tested.”"}}}
{"smiles": "NCC(=O)Nc1ccc(-n2nc(C(F)(F)F)cc2-c2ccc3c(ccc4ccccc43)c2)cc1", "note": "[Compound 70, 2-Amino-N-{4-[5-(2-phenanthrenyl)-3-(trifluoromethyl)-1H-pyrazol-1-yl]-phenyl}-acetamide]", "values": [{"measurement": "TGI", "setting": "HOP-92", "value": "3.07E−06"}, {"measurement": "Percent Growth", "setting": "HOP-92; Log10 Concentration −4.0", "value": "−75", "unit": "%"}, {"measurement": "Percent Growth", "setting": "HOP-92; Log10 Concentration −5.0", "value": "−91", "unit": "%"}, {"measurement": "Percent Growth", "setting": "HOP-92; Log10 Concentration −6.0", "value": 87, "unit": "%"}, {"measurement": "Percent Growth", "setting": "HOP-92; Log10 Concentration −7.0", "value": 89, "unit": "%"}, {"measurement": "Percent Growth", "setting": "HOP-92; Log10 Concentration −8.0", "value": 96, "unit": "%"}, {"measurement": "TGI", "setting": "SW-620", "value": "4.23E−06"}, {"measurement": "Percent Growth", "setting": "SW-620; Log10 Concentration −4.0", "value": "−28", "unit": "%"}, {"measurement": "Percent Growth", "setting": "SW-620; Log10 Concentration −5.0", "value": "−32", "unit": "%"}, {"measurement": "Percent Growth", "setting": "SW-620; Log10 Concentration −6.0", "value": 54, "unit": "%"}, {"measurement": "Percent Growth", "setting": "SW-620; Log10 Concentration −7.0", "value": 100, "unit": "%"}, {"measurement": "Percent Growth", "setting": "SW-620; Log10 Concentration −8.0", "value": 100, "unit": "%"}, {"measurement": "TGI", "setting": "KM12", "value": "2.67E−06"}, {"measurement": "Percent Growth", "setting": "KM12; Log10 Concentration −4.0", "value": "−51", "unit": "%"}, {"measurement": "Percent Growth", "setting": "KM12; Log10 Concentration −5.0", "value": "−73", "unit": "%"}, {"measurement": "Percent Growth", "setting": "KM12; Log10 Concentration −6.0", "value": 54, "unit": "%"}, {"measurement": "Percent Growth", "setting": "KM12; Log10 Concentration −7.0", "value": 91, "unit": "%"}, {"measurement": "Percent Growth", "setting": "KM12; Log10 Concentration −8.0", "value": 98, "unit": "%"}, {"measurement": "Percent Growth", "setting": "HCT-116; Log10 Concentration −4.0", "value": 5, "unit": "%"}, {"measurement": "Percent Growth", "setting": "HCT-116; Log10 Concentration −5.0", "value": "−9", "unit": "%"}, {"measurement": "Percent Growth", "setting": "HCT-116; Log10 Concentration −6.0", "value": 57, "unit": "%"}, {"measurement": "Percent Growth", "setting": "HCT-116; Log10 Concentration −7.0", "value": 93, "unit": "%"}, {"measurement": "Percent Growth", "setting": "HCT-116; Log10 Concentration −8.0", "value": 107, "unit": "%"}, {"measurement": "TGI", "setting": "HS 578T; HS 578T", "value": "5.25E−06"}, {"measurement": "Percent Growth", "setting": "HS 578T; HS 578T, Log10 Concentration −4.0", "value": "−38", "unit": "%"}, {"measurement": "Percent Growth", "setting": "HS 578T; HS 578T, Log10 Concentration −5.0", "value": "−34", "unit": "%"}, {"measurement": "Percent Growth", "setting": "HS 578T; HS 578T, Log10 Concentration −6.0", "value": 88, "unit": "%"}, {"measurement": "Percent Growth", "setting": "HS 578T; HS 578T, Log10 Concentration −7.0", "value": 99, "unit": "%"}, {"measurement": "Percent Growth", "setting": "HS 578T; HS 578T, Log10 Concentration −8.0", "value": 105, "unit": "%"}, {"measurement": "CC50", "setting": "HS 578T; Homo sapiens, Hs-578T, read-out: LC50", "value": "> 100", "unit": "µM"}, {"measurement": "TGI", "setting": "NCI/ADR-RES", "value": "2.85E−06"}, {"measurement": "Percent Growth", "setting": "NCI/ADR-RES; Log10 Concentration −4.0", "value": "−62", "unit": "%"}, {"measurement": "Percent Growth", "setting": "NCI/ADR-RES; Log10 Concentration −5.0", "value": "−59", "unit": "%"}, {"measurement": "Percent Growth", "setting": "NCI/ADR-RES; Log10 Concentration −6.0", "value": 49, "unit": "%"}, {"measurement": "Percent Growth", "setting": "NCI/ADR-RES; Log10 Concentration −7.0", "value": 98, "unit": "%"}, {"measurement": "Percent Growth", "setting": "NCI/ADR-RES; Log10 Concentration −8.0", "value": 98, "unit": "%"}, {"measurement": "TGI", "setting": "T-47D", "value": "4.21E−06"}, {"measurement": "Percent Growth", "setting": "T-47D; Log10 Concentration −4.0", "value": "−44", "unit": "%"}, {"measurement": "Percent Growth", "setting": "T-47D; Log10 Concentration −5.0", "value": "−52", "unit": "%"}, {"measurement": "Percent Growth", "setting": "T-47D; Log10 Concentration −6.0", "value": 86, "unit": "%"}, {"measurement": "Percent Growth", "setting": "T-47D; Log10 Concentration −7.0", "value": 109, "unit": "%"}, {"measurement": "Percent Growth", "setting": "T-47D; Log10 Concentration −8.0", "value": 84, "unit": "%"}, {"measurement": "TGI", "setting": "MDA-MB-231/ATCC", "value": "2.77E−06"}, {"measurement": "Percent Growth", "setting": "MDA-MB-231/ATCC; Log10 Concentration −4.0", "value": "−52", "unit": "%"}, {"measurement": "Percent Growth", "setting": "MDA-MB-231/ATCC; Log10 Concentration −5.0", "value": "−73", "unit": "%"}, {"measurement": "Percent Growth", "setting": "MDA-MB-231/ATCC; Log10 Concentration −6.0", "value": 58, "unit": "%"}, {"measurement": "Percent Growth", "setting": "MDA-MB-231/ATCC; Log10 Concentration −7.0", "value": 71, "unit": "%"}, {"measurement": "Percent Growth", "setting": "MDA-MB-231/ATCC; Log10 Concentration −8.0", "value": 100, "unit": "%"}, {"measurement": "mean TGI among the sixty cell lines", "setting": "[1]", "value": 3.2, "unit": "µM"}]}
